# Test results taken from patent US20140271831A1, “RACECADOTRIL LIQUID COMPOSITIONS” (McNeil-PPC, Inc., priority 2013, published 2014).
# Assay: Racecadotril and degradation products over time in Acetate and Citrate at pH 3.6, 4.0, 4.5 (untitled table)
# Assay type: physicochemical
# Parameters: key to Impurity C / Impurity G: % peak area relative to the Racecadotril peak
# Settings: for RAC: in % (unit assumed)
# Experimental: • 1. Pipet 1 mL of Racecadotril solution into a 100 mL volumetric flask (V.F.) • 2. Dilute to volume with the same buffer used in the solution preparation. • 3. […] Parameters may be modified to optimize chromatography. • The assay of Racecadotril is determined by using the external standard injected. The degradation products levels are determined by % peak area relative to the Racecadotril peak. [table] [table] Mobil Phase A: Phosphate buffer, pH 2.5 (Buffer prep: dissolve 1 g of potassium dihydrogen phosphate in water, adjust to pH 2.5 with phosphoric acid, dilute to 1000 mL with water) Mobil Phase B: 100% Acetonitrile
structure (smiles),measurement,setting,value
CC(=O)SCC(Cc1ccccc1)C(=O)NCC(=O)OCc1ccccc1 (racemic) [Racecadotril],Benz Alcohol,"Acetate, pH 3.6, 1 week",0.69%
same,Impurity C,"Acetate, pH 3.6, 1 week",0.93
same,Impurity G,"Acetate, pH 3.6, 1 week",1.17
same,Thiorphan,"Acetate, pH 3.6, 1 week",0%
same,RAC,"Acetate, pH 3.6, 1 week",97.21
same,Benz Alcohol,"Acetate, pH 3.6, 2 week",1.4%
same,Impurity C,"Acetate, pH 3.6, 2 week",1.87
same,Impurity G,"Acetate, pH 3.6, 2 week",1.74
same,Thiorphan,"Acetate, pH 3.6, 2 week",0.11%
same,RAC,"Acetate, pH 3.6, 2 week",94.88
same,Benz Alcohol,"Acetate, pH 3.6, 3 week",2.13%
same,Impurity C,"Acetate, pH 3.6, 3 week",2.78
same,Impurity G,"Acetate, pH 3.6, 3 week",1.93
same,Thiorphan,"Acetate, pH 3.6, 3 week",0.14%
same,RAC,"Acetate, pH 3.6, 3 week",93.01
same,Benz Alcohol,"Acetate, pH 3.6, 4 week",2.84%
same,Impurity C,"Acetate, pH 3.6, 4 week",3.56
same,Impurity G,"Acetate, pH 3.6, 4 week",3
same,Thiorphan,"Acetate, pH 3.6, 4 week",0.3%
same,RAC,"Acetate, pH 3.6, 4 week",90.15
same,Benz Alcohol,"Acetate, pH 3.6, 6 week",4.33%
same,Impurity C,"Acetate, pH 3.6, 6 week",5.17
same,Impurity G,"Acetate, pH 3.6, 6 week",3.82
same,Thiorphan,"Acetate, pH 3.6, 6 week",0.57%
same,RAC,"Acetate, pH 3.6, 6 week",85.75
same,Benz Alcohol,"Acetate, pH 3.6, 8 week",5.78%
same,Impurity C,"Acetate, pH 3.6, 8 week",6.2
same,Impurity G,"Acetate, pH 3.6, 8 week",5.28
same,Thiorphan,"Acetate, pH 3.6, 8 week",1%
same,RAC,"Acetate, pH 3.6, 8 week",80.68
same,Benz Alcohol,"Acetate, pH 3.6, Initial",0%
same,Impurity C,"Acetate, pH 3.6, Initial",0
same,Impurity G,"Acetate, pH 3.6, Initial",0.07
same,Thiorphan,"Acetate, pH 3.6, Initial",0%
same,RAC,"Acetate, pH 3.6, Initial",99.93
same,Benz Alcohol,"Acetate, pH 4.0, 1 week",0.7%
same,Impurity C,"Acetate, pH 4.0, 1 week",0.93
same,Impurity G,"Acetate, pH 4.0, 1 week",1.36
same,Thiorphan,"Acetate, pH 4.0, 1 week",0%
same,RAC,"Acetate, pH 4.0, 1 week",97.01
same,Benz Alcohol,"Acetate, pH 4.0, 2 week",1.39%
same,Impurity C,"Acetate, pH 4.0, 2 week",1.82
same,Impurity G,"Acetate, pH 4.0, 2 week",1.7
same,Thiorphan,"Acetate, pH 4.0, 2 week",0.7%
same,RAC,"Acetate, pH 4.0, 2 week",95.02
same,Benz Alcohol,"Acetate, pH 4.0, 3 week",2.09%
same,Impurity C,"Acetate, pH 4.0, 3 week",2.83
same,Impurity G,"Acetate, pH 4.0, 3 week",2.66
same,Thiorphan,"Acetate, pH 4.0, 3 week",0.19%
same,RAC,"Acetate, pH 4.0, 3 week",92.23
same,Benz Alcohol,"Acetate, pH 4.0, 4 week",2.84%
same,Impurity C,"Acetate, pH 4.0, 4 week",3.52
same,Impurity G,"Acetate, pH 4.0, 4 week",3.62
same,Thiorphan,"Acetate, pH 4.0, 4 week",0.38%
same,RAC,"Acetate, pH 4.0, 4 week",89.5
same,Benz Alcohol,"Acetate, pH 4.0, 6 week",4.28%
same,Impurity C,"Acetate, pH 4.0, 6 week",5.16
same,Impurity G,"Acetate, pH 4.0, 6 week",5.67
same,Thiorphan,"Acetate, pH 4.0, 6 week",0.71%
same,RAC,"Acetate, pH 4.0, 6 week",83.98
same,Benz Alcohol,"Acetate, pH 4.0, 8 week",5.37%
same,Impurity C,"Acetate, pH 4.0, 8 week",6.2
same,Impurity G,"Acetate, pH 4.0, 8 week",8.46
same,Thiorphan,"Acetate, pH 4.0, 8 week",1.19%
same,RAC,"Acetate, pH 4.0, 8 week",78.53
same,Benz Alcohol,"Acetate, pH 4.0, Initial",0%
same,Impurity C,"Acetate, pH 4.0, Initial",0
same,Impurity G,"Acetate, pH 4.0, Initial",0
same,Thiorphan,"Acetate, pH 4.0, Initial",0%
same,RAC,"Acetate, pH 4.0, Initial",100
same,Benz Alcohol,"Acetate, pH 4.5, 1 week",0.022%
same,Impurity C,"Acetate, pH 4.5, 1 week",0.21
same,Impurity G,"Acetate, pH 4.5, 1 week",3.17
same,Thiorphan,"Acetate, pH 4.5, 1 week",0.02%
same,RAC,"Acetate, pH 4.5, 1 week",96.33
same,Benz Alcohol,"Acetate, pH 4.5, 2 week",0.4%
same,Impurity C,"Acetate, pH 4.5, 2 week",0.4
same,Impurity G,"Acetate, pH 4.5, 2 week",6.5
same,Thiorphan,"Acetate, pH 4.5, 2 week",0.04%
same,RAC,"Acetate, pH 4.5, 2 week",92.61
same,Benz Alcohol,"Acetate, pH 4.5, 3 week",0.59%
same,Impurity C,"Acetate, pH 4.5, 3 week",0.58
same,Impurity G,"Acetate, pH 4.5, 3 week",9.43
same,Thiorphan,"Acetate, pH 4.5, 3 week",0.06%
same,RAC,"Acetate, pH 4.5, 3 week",89.29
same,Benz Alcohol,"Acetate, pH 4.5, 4 week",0.79%
same,Impurity C,"Acetate, pH 4.5, 4 week",0.72
same,Impurity G,"Acetate, pH 4.5, 4 week",11.84
same,Thiorphan,"Acetate, pH 4.5, 4 week",0.11%
same,RAC,"Acetate, pH 4.5, 4 week",86.5
same,Benz Alcohol,"Acetate, pH 4.5, 6 week",1.14%
same,Impurity C,"Acetate, pH 4.5, 6 week",1.04
same,Impurity G,"Acetate, pH 4.5, 6 week",17.32
same,Thiorphan,"Acetate, pH 4.5, 6 week",0.2%
same,RAC,"Acetate, pH 4.5, 6 week",80.25
same,Benz Alcohol,"Acetate, pH 4.5, 8 week",1.51%
same,Impurity C,"Acetate, pH 4.5, 8 week",1.25
same,Impurity G,"Acetate, pH 4.5, 8 week",21.73
same,Thiorphan,"Acetate, pH 4.5, 8 week",0.36%
same,RAC,"Acetate, pH 4.5, 8 week",75.06
same,Benz Alcohol,"Acetate, pH 4.5, Initial",0.02%
same,Impurity C,"Acetate, pH 4.5, Initial",0.02
same,Impurity G,"Acetate, pH 4.5, Initial",0.21
same,Thiorphan,"Acetate, pH 4.5, Initial",0.01%
same,RAC,"Acetate, pH 4.5, Initial",99.68
same,Benz Alcohol,"Citrate, pH 3.6, 1 week",0.79%
same,Impurity C,"Citrate, pH 3.6, 1 week",0.98
same,Impurity G,"Citrate, pH 3.6, 1 week",1.78
same,Thiorphan,"Citrate, pH 3.6, 1 week",0%
same,RAC,"Citrate, pH 3.6, 1 week",96.45
same,Benz Alcohol,"Citrate, pH 3.6, 2 week",1.72%
same,Impurity C,"Citrate, pH 3.6, 2 week",2.3
same,Impurity G,"Citrate, pH 3.6, 2 week",3.81
same,Thiorphan,"Citrate, pH 3.6, 2 week",0.13%
same,RAC,"Citrate, pH 3.6, 2 week",92.01
same,Benz Alcohol,"Citrate, pH 3.6, 3 week",2.59%
same,Impurity C,"Citrate, pH 3.6, 3 week",3.36
same,Impurity G,"Citrate, pH 3.6, 3 week",5.52
same,Thiorphan,"Citrate, pH 3.6, 3 week",0.31%
same,RAC,"Citrate, pH 3.6, 3 week",88.22
same,Benz Alcohol,"Citrate, pH 3.6, 4 week",3.38%
same,Impurity C,"Citrate, pH 3.6, 4 week",4.23
same,Impurity G,"Citrate, pH 3.6, 4 week",7.38
same,Thiorphan,"Citrate, pH 3.6, 4 week",0.47%
same,RAC,"Citrate, pH 3.6, 4 week",84.51
same,Benz Alcohol,"Citrate, pH 3.6, 6 week",5.09%
same,Impurity C,"Citrate, pH 3.6, 6 week",6.13
same,Impurity G,"Citrate, pH 3.6, 6 week",9.72
same,Thiorphan,"Citrate, pH 3.6, 6 week",1.11%
same,RAC,"Citrate, pH 3.6, 6 week",77.91
same,Benz Alcohol,"Citrate, pH 3.6, 8 week",6.64%
same,Impurity C,"Citrate, pH 3.6, 8 week",7.54
same,Impurity G,"Citrate, pH 3.6, 8 week",12.47
same,Thiorphan,"Citrate, pH 3.6, 8 week",1.8%
same,RAC,"Citrate, pH 3.6, 8 week",71.51
same,Benz Alcohol,"Citrate, pH 3.6, Initial",0%
same,Impurity C,"Citrate, pH 3.6, Initial",0
same,Impurity G,"Citrate, pH 3.6, Initial",0.09
same,Thiorphan,"Citrate, pH 3.6, Initial",0%
same,RAC,"Citrate, pH 3.6, Initial",99.91
same,Benz Alcohol,"Citrate, pH 4.0, 1 week",0.89%
same,Impurity C,"Citrate, pH 4.0, 1 week",1.23
same,Impurity G,"Citrate, pH 4.0, 1 week",1.95
same,Thiorphan,"Citrate, pH 4.0, 1 week",0%
same,RAC,"Citrate, pH 4.0, 1 week",95.93
same,Benz Alcohol,"Citrate, pH 4.0, 2 week",1.41%
same,Impurity C,"Citrate, pH 4.0, 2 week",1.82
same,Impurity G,"Citrate, pH 4.0, 2 week",3.47
same,Thiorphan,"Citrate, pH 4.0, 2 week",0.11%
same,RAC,"Citrate, pH 4.0, 2 week",93.19
same,Benz Alcohol,"Citrate, pH 4.0, 3 week",2.36%
same,Impurity C,"Citrate, pH 4.0, 3 week",2.82
same,Impurity G,"Citrate, pH 4.0, 3 week",4.79
same,Thiorphan,"Citrate, pH 4.0, 3 week",0.21%
same,RAC,"Citrate, pH 4.0, 3 week",89.91
same,Benz Alcohol,"Citrate, pH 4.0, 4 week",2.79%
same,Impurity C,"Citrate, pH 4.0, 4 week",3.43
same,Impurity G,"Citrate, pH 4.0, 4 week",6.57
same,Thiorphan,"Citrate, pH 4.0, 4 week",0.4%
same,RAC,"Citrate, pH 4.0, 4 week",86.78
same,Benz Alcohol,"Citrate, pH 4.0, 6 week",4.19%
same,Impurity C,"Citrate, pH 4.0, 6 week",4.98
same,Impurity G,"Citrate, pH 4.0, 6 week",9.24
same,Thiorphan,"Citrate, pH 4.0, 6 week",0.85%
same,RAC,"Citrate, pH 4.0, 6 week",80.7
same,Benz Alcohol,"Citrate, pH 4.0, 8 week",5.54%
same,Impurity C,"Citrate, pH 4.0, 8 week",6.22
same,Impurity G,"Citrate, pH 4.0, 8 week",11.26
same,Thiorphan,"Citrate, pH 4.0, 8 week",1.42%
same,RAC,"Citrate, pH 4.0, 8 week",75.6
same,Benz Alcohol,"Citrate, pH 4.0, Initial",0%
same,Impurity C,"Citrate, pH 4.0, Initial",0
same,Impurity G,"Citrate, pH 4.0, Initial",0
same,Thiorphan,"Citrate, pH 4.0, Initial",0%
same,RAC,"Citrate, pH 4.0, Initial",100
same,Benz Alcohol,"Citrate, pH 4.5, 1 week",0.22%
same,Impurity C,"Citrate, pH 4.5, 1 week",0.18
same,Impurity G,"Citrate, pH 4.5, 1 week",3.15
same,Thiorphan,"Citrate, pH 4.5, 1 week",0.01%
same,RAC,"Citrate, pH 4.5, 1 week",96.44
same,Benz Alcohol,"Citrate, pH 4.5, 2 week",0.4%
same,Impurity C,"Citrate, pH 4.5, 2 week",0.36
same,Impurity G,"Citrate, pH 4.5, 2 week",6.04
same,Thiorphan,"Citrate, pH 4.5, 2 week",0.03%
same,RAC,"Citrate, pH 4.5, 2 week",93.19
same,Benz Alcohol,"Citrate, pH 4.5, 3 week",0.59%
same,Impurity C,"Citrate, pH 4.5, 3 week",0.52
same,Impurity G,"Citrate, pH 4.5, 3 week",8.66
same,Thiorphan,"Citrate, pH 4.5, 3 week",0.06%
same,RAC,"Citrate, pH 4.5, 3 week",90.2
same,Benz Alcohol,"Citrate, pH 4.5, 4 week",0.79%
same,Impurity C,"Citrate, pH 4.5, 4 week",0.62
same,Impurity G,"Citrate, pH 4.5, 4 week",11.16
same,Thiorphan,"Citrate, pH 4.5, 4 week",0.1%
same,RAC,"Citrate, pH 4.5, 4 week",87.41
same,Benz Alcohol,"Citrate, pH 4.5, 6 week",1.14%
same,Impurity C,"Citrate, pH 4.5, 6 week",0.9
same,Impurity G,"Citrate, pH 4.5, 6 week",15.86
same,Thiorphan,"Citrate, pH 4.5, 6 week",0.17%
same,RAC,"Citrate, pH 4.5, 6 week",82.05
same,Benz Alcohol,"Citrate, pH 4.5, 8 week",1.51%
same,Impurity C,"Citrate, pH 4.5, 8 week",1.11
same,Impurity G,"Citrate, pH 4.5, 8 week",19.95
same,Thiorphan,"Citrate, pH 4.5, 8 week",0.29%
same,RAC,"Citrate, pH 4.5, 8 week",77.34
same,Benz Alcohol,"Citrate, pH 4.5, Initial",0.02%
same,Impurity C,"Citrate, pH 4.5, Initial",0.01
same,Impurity G,"Citrate, pH 4.5, Initial",0.19
same,Thiorphan,"Citrate, pH 4.5, Initial",0.01%
same,RAC,"Citrate, pH 4.5, Initial",99.71
